The test addresses T1, Laj2 (cytochrome P450).
T1 construct: His6-tagged Laj2 (405 aa), expressed in E. coli
Description: UV-vis difference spectral titration (type I binding spectra), one-site fit; nitration turnover also shown by LC-MS. More on the design: species or system Streptomyces qinglanensis.

This passage reports Kd results from PMC10831120, “Nitric oxide synthase-guided genome mining identifies a cytochrome P450 enzyme for olefin nitration in bacterial specialized metabolism” (Synthetic and Systems Biotechnology, 2024).

By Kd is commonly meant the concentration at which binding is half-saturated. A low value points to tighter binding. For the compound `C/C=C(C)/C=C/C=C\C=C(\C)C(O)C(C)(C)C(=O)NC/C=C/C=C/C(O)C(C)CC(OC)C1(O)C(C)C(=O)N(C)C12COC2=O` (stereo not shown) [compound 4, denitrolajollamycin], the Kd was approximately 60 µM.
